Test results as given in article PMC7876056, “Population Pharmacokinetic Analysis of Yimitasvir in Chinese Healthy Volunteers and Patients With Chronic Hepatitis C Virus Infection” (Frontiers in Pharmacology, 2021).
Entries after “also recorded” stand apart in the source; their conditions may differ. Where two headings read alike, the source gives them in different places.

Tests used:
[1] = tested on: chronic HCV genotype 1 infection; test: Phase 2 study of yimitasvir with sofosbuvir in patients with chronic HCV infection; format: in vivo, human; conditions: for Adverse reaction rate: with 400 mg sofosbuvir
Procedure: In phase 2 study, yimitasvir 100 or 200 mg was administered once daily for 12 weeks in combination with 400 mg sofosbuvir in patients with chronic HCV infection. […] The primary endpoint of phase 2 study was sustained virologic response [HCV RNA less than lower limit of quantification (LLOQ)] 12 (SVR12) weeks after the completion of treatment. SVR12 rates were achieved 100% in both 100 mg yimitasvir/400 mg sofobuvir and 200 mg yimitasvir/400 mg sofobuvir groups. […] The most common adverse reactions were neutropenia (3.9%), leukopenia (3.1%), hypercholesterolemia (3.1%) and fatigue (3.1%).
The current population PK analysis of yimitasvir was performed using rich and sparse PK samples collected from six clinical pharmacology trials [4 phase 1 ([Zhao et al., 2019]), 1 phase 1b ([Zhang et al., 2018]) and 1 phase 2 studies] in Chinese healthy volunteers and HCV-infected patients. Rich sampling entailed serial blood sampling at defined time points, and sparse sampling (single sample) only in phase 2 study entailed blood collection at every study visits. Patients with genotype 1 HCV infection were eligible, while patients with prior use of direct-acting antiviral agents (DAA) for HCV infection treatment were excluded in phase 1b and phase 2 studies.

human plasma proteins = conditions: independent of drug concentration over 100–2000 ng ml^−1; cited from earlier work
[2] = Simulation of steady state exposure from the final population PK model (sensitive plot); format: in vivo, human; conditions: for AUC / Cmax: human, plasma, oral, 100 mg, 100 mg once daily for 12 weeks
Procedure: Individual empirical Bayes estimates PK parameters from the final model were used to predict the steady state exposure of yimitasvir. The simulated dosing regimen was yimitasvir 100 mg once daily for 12 consecutive weeks. […] The steady state exposure was calculated using PK parameters with incorporation of the isolated effect from the covariate and with other unaffected PK parameters fixed to the typical value.

[3] = parameters: method as in Zhang et al., 2018; conditions: patients, ref Zhang et al., 2018, cited from earlier work
[4] = monkeys; cited from earlier work
[5] = Phase 1b study in patients with chronic HCV genotype 1 infection; format: in vivo, human; conditions: evening after dinner for more than 4 h
Procedure: Yimitasvir is a novel, oral HCV non-structural protein 5A (NS5A) inhibitor for the treatment of chronic HCV genotype 1 infection in combination with sofosbuvir. The pharmacokinetic profile of yimitasvir has been evaluated in healthy volunteers and patients with chronic HCV infection ([Zhang et al., 2018]; [Zhao et al., 2019]). Following fasted single oral dose of yimitasvir in healthy volunteers, yimitasvir was absorbed with a peak concentration (Cmax) 3.5–4.0 h post-dose. […] Yimitasvir was approximately 79.2–86.6% bound to human plasma proteins and the binding was independent of drug concentration over the range of 100–2000 ng ml^−1. No metabolism of yimitasvir was detected in vitro during incubations with hepatic microsomes from mice, rats, dogs, monkeys and humans. […] Steady state was achieved by day 5 following the once daily dosing regimen. […] Yimitasvir is a substrate and inhibitor of the drug transporter P-glycoprotein (P-gp).
The current population PK analysis of yimitasvir was performed using rich and sparse PK samples collected from six clinical pharmacology trials [4 phase 1 ([Zhao et al., 2019]), 1 phase 1b ([Zhang et al., 2018]) and 1 phase 2 studies] in Chinese healthy volunteers and HCV-infected patients. […]

[6] = dogs; cited from earlier work
[7] = cited from earlier work
CYP 2C19 = conditions: cited from earlier work
CYP 2B6 = conditions: cited from earlier work
[8] = rats; cited from earlier work
[9] = 100 or 200 mg with 400 mg sofosbuvir
[10] = in the evening after dinner more than 4 h

Dose proportionality of exposure ([1]; patients, 100 or 200 mg with 400 mg sofosbuvir): Less than dose proportionality | Decrease in Cmax,ss ([2]; after a high-fat meal, model simulated): 58.9% | AUC ([2]; empirical Bayes estimates, lower end of range, read-out: AUCss, 5th percentile of the population): 3260 ng·h/mL | AUC ([2]; empirical Bayes estimates, upper end of range, read-out: AUCss, 95th percentile of the population): 17400 ng·h/mL | Cmax ([2]; lower end of range, read-out: Cmax,ss, 5th percentile of the population): 182 ng/mL | Cmax ([2]; upper end of range, read-out: Cmax,ss, 95th percentile of the population): 1270 ng/mL | Decrease in AUCss [2, 10]: 28.9% | Decrease in Cmax,ss [2, 10]: 46.1% | Decrease in Ctrough,ss [2, 10]: 10.0% | Steady state exposures (AUCss, Ctrough,ss, Cmax,ss) higher in female than male subjects ([2]; in vivo): 15.1–54.0% | Difference in exposures between patients and healthy volunteers ([2]; steady state): no difference in exposures | Decrease in Ctrough,ss ([2]; with a high-fat meal): 3.52% | AUC decrease compared to phase 1 SAD trial [5]: 40%
Compound: COC(=O)NC(C(=O)N1CCCC1c1ncc(-c2ccc(-c3ccc(-c4ccc5nc(C6CCCN6C(=O)C(NC(=O)OC)C(C)C)[nH]c5c4)c4c3C3CCC4C3)cc2)[nH]1)C(C)C (stereo not drawn) [yimitasvir]
Adverse reaction rate ([1]; 100 mg group): 35.9% | SVR12 rate ([1]; 100 mg yimitasvir/400 mg sofosbuvir once daily for 12 weeks): 100% | Adverse reaction rate ([1]; 200 mg group): 36.9% | SVR12 rate ([1]; 200 mg yimitasvir/400 mg sofosbuvir once daily for 12 weeks): 100% | Effect of co-medication of sofosbuvir on PK profile ([1]; 400 mg sofosbuvir): did not affect; also recorded: not affected by co-medication of sofosbuvir | Adverse reaction: fatigue [1, 9]: 3.1% | Adverse reaction: hypercholesterolemia [1, 9]: 3.1% | Adverse reaction: leukopenia [1, 9]: 3.1% | Adverse reaction: neutropenia [1, 9]: 3.9% | Severity of adverse reactions ([1]; most common adverse reactions): grade 1 or 2; also recorded: grade one or two | SVR12 rate (primary endpoint) ([1]; phase 2 study overall, taken at least 2 h before or after a meal in most patients): 100% | Bound to human plasma proteins (human plasma proteins): 79.2–86.6% | Magnitude of ALT on the steady-state exposure ([2]; healthy volunteers with extreme ALT values (5th and 95th percentiles) relative to typical): ~30% | AUC ([2]; male, typical subject: male, healthy volunteer, fasted 10 h, ALT=31.6 IU l^-1, read-out: AUCss, base): 7250 ng·h/mL | Cmax ([2]; male, typical subject: male, healthy volunteer, fasted 10 h, ALT=31.6 IU l^-1, read-out: Cmax,ss, base): 540 ng/mL | Dose proportionality of exposure ([3]; 30 to 200 mg administered during the night (4 h after dinner)): near dose-proportional increase in exposure | Median time to peak concentration (Tmax) ([3]; evening after dinner for more than 4 h): 4 to 12 h | Metabolism in hepatic microsomes [4]: No metabolism | Metabolism in hepatic microsomes [6]: No metabolism | Solubility profile [7]: pH-dependent solubility profile | Inhibition of CYP2C19 (CYP 2C19): does not inhibit | Inhibition of CYP2B6 (CYP 2B6): does not inhibit | Metabolism in hepatic microsomes [8]: No metabolism
